Data: PubChem BioAssay AID1919002 (Molecular Pharmacology Branch, DTP, NCI, 2023)

Tested on: 743489-274-T-PDC complex spheroid growth
Assay: Anticancer human tumor 743489-274-T-PDC patient-derived renal cell carcinoma cell line growth inhibition [AhR]
Conditions: for IC50: curve of first compound; for viability, T/C: stronger effect = lower value
Procedure, shortened: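 Agents were dosed in half-log steps down from roughly clinical Cmax, or from 10 microM where Cmax was unknown, alone and with AhR antagonists. Read-out: percent test/control growth of tumor spheroids containing HUVEC and MSC stromal cells.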

[1] = second compound 0.1 µM, first compound 0.0316 µM
[2] = second compound 0.1 µM, first compound 0.1 µM
[3] = second compound 0.1 µM, first compound 0.316 µM
[4] = second compound 0.1 µM, first compound 1 µM
[5] = second compound 0.1 µM, first compound 3.16 µM
[6] = second compound 0.1 µM, first compound 10 µM
[7] = second compound 0.316 µM, first compound 0.0316 µM
[8] = second compound 0.316 µM, first compound 0.1 µM
[9] = second compound 0.316 µM, first compound 0.316 µM
[10] = second compound 0.316 µM, first compound 1 µM
[11] = second compound 0.316 µM, first compound 3.16 µM
[12] = second compound 0.316 µM, first compound 10 µM
[13] = second compound 1 µM, first compound 0.0316 µM
[14] = second compound 1 µM, first compound 0.1 µM
[15] = second compound 1 µM, first compound 0.316 µM
[16] = second compound 1 µM, first compound 1 µM
[17] = second compound 1 µM, first compound 3.16 µM
[18] = second compound 1 µM, first compound 10 µM
[19] = second compound 3.16 µM, first compound 0.0316 µM
[20] = second compound 3.16 µM, first compound 0.1 µM
[21] = second compound 3.16 µM, first compound 0.316 µM
[22] = second compound 3.16 µM, first compound 1 µM
[23] = second compound 3.16 µM, first compound 3.16 µM
[24] = second compound 3.16 µM, first compound 10 µM
[25] = second compound 10 µM, first compound 0.0316 µM
[26] = second compound 10 µM, first compound 0.1 µM
[27] = second compound 10 µM, first compound 0.316 µM
[28] = second compound 10 µM, first compound 1 µM
[29] = second compound 10 µM, first compound 3.16 µM
[30] = second compound 10 µM, first compound 10 µM
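Further: spheroids exposed to agents for 7 days before readout.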
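Wherever viability, T/C is given: 100% = DMSO vehicle control wells.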

CC(C)c1c(-c2ccccc2)nc2c(C#N)c[nH]n2c1=O + Cc1ccccc1N=Nc1ccc(NC(=O)c2ccnn2C)c(C)c1
IC50 (second compound 0.1 µM): > 10 µM
IC50 (second compound 0.316 µM): > 10 µM
IC50 (second compound 1 µM): > 10 µM
IC50 (second compound 3.16 µM): > 10 µM
IC50 (second compound 10 µM): > 10 µM
viability, T/C [1]: 102%
viability, T/C [2]: 103%
viability, T/C [3]: 93.3%
viability, T/C [4]: 96%
viability, T/C [5]: 109%
viability, T/C [6]: 99.4%
viability, T/C [7]: 102%
viability, T/C [8]: 102%
viability, T/C [9]: 101%
viability, T/C [10]: 94.1%
viability, T/C [11]: 100%
viability, T/C [12]: 91.3%
viability, T/C [13]: 111%
viability, T/C [14]: 93.8%
viability, T/C [15]: 108%
viability, T/C [16]: 109%
viability, T/C [17]: 95.7%
viability, T/C [18]: 96.2%
viability, T/C [19]: 94.3%
viability, T/C [20]: 98.1%
viability, T/C [21]: 94.5%
viability, T/C [22]: 103%
viability, T/C [23]: 104%
viability, T/C [24]: 90.4%
viability, T/C [25]: 92.2%
viability, T/C [26]: 99.2%
viability, T/C [27]: 104%
viability, T/C [28]: 93.2%
viability, T/C [29]: 85.8%
viability, T/C [30]: 86.9%

CC1COCCN1c1cc(-c2ccnn2C)c2ccnc(-c3ccn[nH]3)c2n1 (stereo not given) + Cc1ccccc1N=Nc1ccc(NC(=O)c2ccnn2C)c(C)c1
IC50 (second compound 0.1 µM): > 1 µM
IC50 (second compound 0.316 µM): > 1 µM
IC50 (second compound 1 µM): > 1 µM
IC50 (second compound 3.16 µM): > 1 µM
IC50 (second compound 10 µM): > 1 µM
viability, T/C (second compound 0.1 µM, first compound 0.00316 µM): 92.8%
viability, T/C (second compound 0.1 µM, first compound 0.01 µM): 94.4%
viability, T/C [1]: 93.9%
viability, T/C [2]: 95.9%
viability, T/C [3]: 88.5%
viability, T/C [4]: 78.4%
viability, T/C (second compound 0.316 µM, first compound 0.00316 µM): 89.7%
viability, T/C (second compound 0.316 µM, first compound 0.01 µM): 101%
viability, T/C [7]: 89.6%
viability, T/C [8]: 93.3%
viability, T/C [9]: 99.2%
viability, T/C [10]: 75.3%
viability, T/C (second compound 1 µM, first compound 0.00316 µM): 93.4%
viability, T/C (second compound 1 µM, first compound 0.01 µM): 98.5%
viability, T/C [13]: 92%
viability, T/C [14]: 86.5%
viability, T/C [15]: 88.2%
viability, T/C [16]: 68.1%
viability, T/C (second compound 3.16 µM, first compound 0.00316 µM): 87.6%
viability, T/C (second compound 3.16 µM, first compound 0.01 µM): 86.8%
viability, T/C [19]: 88%
viability, T/C [20]: 82.8%
viability, T/C [21]: 76.4%
viability, T/C [22]: 76.3%
viability, T/C (second compound 10 µM, first compound 0.00316 µM): 103%
viability, T/C (second compound 10 µM, first compound 0.01 µM): 94.9%
viability, T/C [25]: 96.2%
viability, T/C [26]: 84.9%
viability, T/C [27]: 73.5%
viability, T/C [28]: 58.6%

COc1ccc([C@@H](O)c2cc(-c3ncnc4cc(N5CCOCC5)ccc34)c(F)cc2Cl)nn1 + Cc1ccccc1N=Nc1ccc(NC(=O)c2ccnn2C)c(C)c1
IC50 (second compound 0.1 µM): 2.61 µM
IC50 (second compound 0.316 µM): 2.57 µM
IC50 (second compound 1 µM): 2.34 µM
IC50 (second compound 3.16 µM): 2.26 µM
IC50 (second compound 10 µM): 1.72 µM
viability, T/C [1]: 99.7%
viability, T/C [2]: 87.6%
viability, T/C [3]: 95.7%
viability, T/C [4]: 80.1%
viability, T/C [5]: 44.1%
viability, T/C [6]: 31.9%
viability, T/C [7]: 96.2%
viability, T/C [8]: 89.1%
viability, T/C [9]: 92.4%
viability, T/C [10]: 77.2%
viability, T/C [11]: 44.1%
viability, T/C [12]: 22.4%
viability, T/C [13]: 101%
viability, T/C [14]: 87%
viability, T/C [15]: 86.5%
viability, T/C [16]: 68.9%
viability, T/C [17]: 42.2%
viability, T/C [18]: 22.8%
viability, T/C [19]: 84.5%
viability, T/C [20]: 81.5%
viability, T/C [21]: 87.5%
viability, T/C [22]: 77.7%
viability, T/C [23]: 38.4%
viability, T/C [24]: 19.1%
viability, T/C [25]: 86.2%
viability, T/C [26]: 90.2%
viability, T/C [27]: 81.5%
viability, T/C [28]: 62.2%
viability, T/C [29]: 36.1%
viability, T/C [30]: 18.8%

O=C(C=Cn1cnc(-c2cc(C(F)(F)F)cc(C(F)(F)F)c2)n1)NNc1cnccn1 + Cc1ccccc1N=Nc1ccc(NC(=O)c2ccnn2C)c(C)c1
IC50 (second compound 0.1 µM): > 3 µM
IC50 (second compound 0.316 µM): > 3 µM
IC50 (second compound 1 µM): > 3 µM
IC50 (second compound 3.16 µM): > 3 µM
IC50 (second compound 10 µM): > 3 µM
viability, T/C (second compound 0.1 µM, first compound 0.00949 µM): 106%
viability, T/C (second compound 0.1 µM, first compound 0.03 µM): 110%
viability, T/C (second compound 0.1 µM, first compound 0.0949 µM): 118%
viability, T/C (second compound 0.1 µM, first compound 0.3 µM): 140%
viability, T/C (second compound 0.1 µM, first compound 0.949 µM): 121%
viability, T/C (second compound 0.1 µM, first compound 3 µM): 104%
viability, T/C (second compound 0.316 µM, first compound 0.00949 µM): 105%
viability, T/C (second compound 0.316 µM, first compound 0.03 µM): 102%
viability, T/C (second compound 0.316 µM, first compound 0.0949 µM): 115%
viability, T/C (second compound 0.316 µM, first compound 0.3 µM): 133%
viability, T/C (second compound 0.316 µM, first compound 0.949 µM): 103%
viability, T/C (second compound 0.316 µM, first compound 3 µM): 94%
viability, T/C (second compound 1 µM, first compound 0.00949 µM): 97.8%
viability, T/C (second compound 1 µM, first compound 0.03 µM): 107%
viability, T/C (second compound 1 µM, first compound 0.0949 µM): 128%
viability, T/C (second compound 1 µM, first compound 0.3 µM): 140%
viability, T/C (second compound 1 µM, first compound 0.949 µM): 110%
viability, T/C (second compound 1 µM, first compound 3 µM): 97.1%
viability, T/C (second compound 3.16 µM, first compound 0.00949 µM): 102%
viability, T/C (second compound 3.16 µM, first compound 0.03 µM): 97.7%
viability, T/C (second compound 3.16 µM, first compound 0.0949 µM): 109%
viability, T/C (second compound 3.16 µM, first compound 0.3 µM): 127%
viability, T/C (second compound 3.16 µM, first compound 0.949 µM): 95.4%
viability, T/C (second compound 3.16 µM, first compound 3 µM): 82.5%
viability, T/C (second compound 10 µM, first compound 0.00949 µM): 90.8%
viability, T/C (second compound 10 µM, first compound 0.03 µM): 85.8%
viability, T/C (second compound 10 µM, first compound 0.0949 µM): 99.7%
viability, T/C (second compound 10 µM, first compound 0.3 µM): 128%
viability, T/C (second compound 10 µM, first compound 0.949 µM): 101%
viability, T/C (second compound 10 µM, first compound 3 µM): 79.2%
